Patent publication US10702524B2, “Use of a compound in repairing nerve injury” (priority 2017, dated 2020)
“Also recorded” adds a separate entry of the source.

Experiments:
TNF-α = TNF-α expression of spinal cord tissue by Western Blot, rat spinal cord injury model; assay type: in vivo; conditions: 15 mg/kg, experimental group vs control group, gray level analysis
Protocol: (§1) Animal models of acute spinal cord injury experiment were established by using an IMPACTOR MODEL-II spinal cord injury striking system. Sixty female Wistar rats with the age from 8 to 10 weeks and the weight from 230 to 250 g were divided into three groups with 20 rats in each group: a sham-surgery operated group, a control group (spinal cord injury group) and an experimental group, respectively. At 15 minutes before striking injury, the rats in the experimental group were injected with the compound of the formula (I) at a dose of 15 mg/kg body weight.
(§2) At 6 hours, 24 hours, 48 hours, 7 days, 14 days, and 28 days after injury, respectively, the rat spinal cord tissues were sampled for the Western Blot test, so as to test the inhibiting function of the compound of the formula (I) against the pro-inflammatory cytokines at the spinal cord injury sites.

ICAM1 = ICAM1 expression of spinal cord tissue by Western Blot, rat spinal cord injury model; assay type: in vivo; conditions: 15 mg/kg injected 15 minutes before striking injury, experimental group vs control group, gray level analysis
Protocol: as §1, §2

spinal cord tissues [1] = assay: HE staining of spinal cord tissues (void, inflammatory cells), rat spinal cord injury model; assay type: in vivo
Protocol: as §1
No spinal cord structure destroy was observed on the rats in the sham-surgery operated group. In the control group, significant changes occurred, mainly including hemorrhage, infiltration with a large number of inflammatory cells and spinal cord structural disorder, and it was observed that in grey matter, a large number of cells were lost, while in the white matter, significant swelling of neurites was observed and axonal terminals were in sphere.

IL-1β = IL-1β expression of spinal cord tissue by Western Blot, rat spinal cord injury model; assay type: in vivo; conditions: 15 mg/kg, experimental group vs control group, gray level analysis
Protocol: as §1, §2

[2] = tested on: rats after spinal cord injury; assay: BBB score of motor function of rear limbs after spinal cord injury; assay type: in vivo, rat; conditions: comparison between experimental group and control group
Protocol: as §1
Motor function of rear limbs of the tested animals were evaluated by scoring with BBB (Basso Beattie Bresnahan locomotor rating scale, BBB). The BBB scoring was one of internationally recognized objective standards regarding nerve functions of rats after spinal cord injury. In the project, the motor function of rear limbs of the rats was evaluated from 1 day before injury to 8 weeks after injury by double-blind independent observations and records with two persons and finally statistical analyses.

oligodendrocytes = assay: CNpase immunohistochemical staining (oligodendrocyte survival), rat spinal cord injury model; assay type: in vivo
Protocol: as §1
At 48 hours and 2 weeks after injury, respectively, the three groups of spinal cord tissues were subjected to CNpase immunohistochemical staining.

Caspase 3 = Caspase 3 expression of spinal cord tissue by Western Blot, rat spinal cord injury model; assay type: in vivo; conditions: 15 mg/kg, experimental group vs control group, gray level analysis
Protocol: as §1
(§3) At 6 hours, 24 hours, 48 hours, 7 days, 14 days, 28 days and 56 days after injury, respectively, the rat spinal cord tissues were sampled for the Western Blot test and TUNEL staining, so as to test the inhibiting function of the compound of the formula (I) against the cell apoptosis at the spinal cord injury sites.

[3] = tested on: Glial Fibrillary Acidic Protein (GFAP); assay: GFAP frozen-section immunofluorescence (glial scar), rat spinal cord injury model; assay type: in vivo
Protocol: as §1
2. Testing Glial Fibrillary Acidic Protein (GFAP) Expression by Frozen-Section Immunofluorescence Histochemical Method
At 48 hours after injury, the spinal cord tissues were subjected to GFAP immunofluorescent staining.

spinal cord tissues [4] = assay: TUNEL staining of spinal cord tissues (cell apoptosis), rat spinal cord injury model; assay type: in vivo; conditions: 48 hours after injury; 15 mg/kg; difference between control group and experimental group
Protocol: as §1, §3
At 48 hours after injury, TUNEL staining was performed on three groups of spinal cord tissues. TUNEL-stained positive cells were located in the gray matter and white matter of the spinal cords, and the cell nuclei was stained brown-yellow and mostly distributed in the center of the injure and the margin thereof. […]

NEUN(+) neuron cells = assay: NEUN immunohistochemical staining (neuron survival), rat spinal cord injury model; assay type: in vivo; conditions: 48 hours and 2 weeks after injury; experimental group vs control group
Protocol: as §1
At 48 hours and 2 weeks after injury, respectively, the three groups of rat spinal cord tissues were subjected to NEUN immunohistochemical staining.

## CC(C)(C)OC(=O)c1ccc(NC23CC4CC(CC(C4)C2)C3)c(/N=C\c2cncnc2)c1 [compound of the formula (I)]
TNF-α; 2 weeks after injury
  TNF-α expression: significantly decreased
TNF-α; 48 hours after injury
  TNF-α expression: decreased, close to the level of the shame-surgery operated group
ICAM1; 2 weeks after injury
  ICAM1 expression: significantly decreased
ICAM1; 48 hours after injury
  ICAM1 expression: significantly decreased
Spinal cord tissues [1]; 8 weeks after spinal cord injury, control group compared to experimental group
  area of voids (HE staining): significantly increased as compared to that in the experimental group
Spinal cord tissues [1]; 8 weeks after spinal cord injury, experimental group vs control group
  inflammatory cells (HE staining, high magnification): significantly reduced
Spinal cord tissues [1]; 48 hours after injury, 200×, 15 mg/kg, vs control group
  HE staining changes (hemorrhage, inflammatory cell infiltration, spinal cord structural disorder): could significantly alleviate the above series of changes
Spinal cord tissues [1]; 48 hours after injury, comparison between control group and experimental group
  histopathological scores: did not have statistical significance
IL-1β; 2 weeks after injury
  IL-1β expression: significantly decreased
IL-1β; 48 hours after injury
  IL-1β expression: significantly decreased, close to the level of the shame-surgery operated group
[2]; 1 week after injury
  BBB score: did not have any statistical significance (p>0.05)
[2]; 2 weeks after injury
  BBB score: had a statistical significance (p<0.05)
[2]; 8 weeks after injury
  BBB score: had a statistical significance (p<0.01); also recorded: significantly higher than that of the control group
[2]; 48 hours after injury
  BBB score: did not have any statistical significance (p>0.05)
oligodendrocytes; 2 weeks after injury, experimental group vs control group
  CNpase positive area and positive cells: had a larger positive area and more positive cells
oligodendrocytes; 48 hours after injury, vs sham-surgery operated group
  CNpase positive area: did not markedly differ from that in the shame-surgery operated group
oligodendrocytes; experimental group vs control group
  survival rate of the oligodendrocytes: higher than that in the control group
Caspase 3; 2 weeks after injury
  Caspase 3 expression: significantly decreased
Caspase 3; 48 hours after injury
  Caspase 3 expression: significantly decreased
[3]; 2 weeks after surgery, control group vs experimental group
  GFAP fluorescence: control group was still stronger than the experimental group
[3]; 48 hours after injury, experimental group vs control group
  quantity of the formed glial scars (GFAP immunofluorescent staining): significantly decreased as compared to the control group
Spinal cord tissues [4]
  quantity of TUNEL-stained positive cells: had a statistical significance (p<0.05)
NEUN(+) neuron cells
  NEUN(+) neuron cells: more positive cells were present in the experimental group
  survival rate of neuron cells: higher than that in the control group
